The record followed here is US8927570B2, “1-naphthyl-or 1-dihydroacenaphthenyl-pyrido[B]indoles and uses thereof in treating cancers” (priority 2009, dated 2015).

Assay [1] concerns HPAC pancreatic cancer cell line. The assay can be described thus: In vitro antiproliferative activity, HPAC pancreatic cancer cell line. The format is cell-based. The protocol: (§1) Substituted β-carboline compounds 4 to 38 were tested for antiproliferative activity against HCT116 colon cancer cells and HPAC, Mia-PaCa2 and Panc-1 pancreatic cancer cell lines. Table 1 lists the IC50 values for the substituted β-carbolines.
(§2) Substituted β-carbolines and analog compounds 39 to 57 were tested for antiproliferative activity against HPAC, Mia-PaCa2 and Panc-1 pancreatic cancer cell lines and MCF-7 and MDA-MB-468 breast cancer cell lines. Table 2 lists the IC50 values for the substituted β-carbolines and analogs thereof.

For assay [2], the system named is Mia-PaCa2 pancreatic cancer cell line. In words: In vitro antiproliferative activity, Mia-PaCa2 pancreatic cancer cell line. The format is cell-based. The protocol: as §1, §2
Assay [3] concerns Panc-1 pancreatic cancer cell line. The assay can be described thus: In vitro antiproliferative activity, Panc-1 pancreatic cancer cell line. The format is cell-based, human. The method, then:
as §2

Assay [4] deals with MCF-7 breast cancer cell line. In words: In vitro antiproliferative activity, MCF-7 breast cancer cell line. It counts as cell-based, human. The protocol:
as §2

In assay [5] the test system is MDA-MB-468 breast cancer cell line. The assay can be described thus: In vitro antiproliferative activity, MDA-MB-468 breast cancer cell line. As to conditions: Table 2. The format is cell-based, human. The method, then: as §2
Assay [6] deals with HCT116 colon cancer cells. In words: In vitro antiproliferative activity, HCT116 colon cancer cells. The following applies: Homo sapiens, HCT-116, Table 1. It counts as cell-based. The protocol: as §1
Where [7] appears, read: Homo sapiens, MIA PaCa-2, Table 2.
[8] abbreviates: Homo sapiens, MIA PaCa-2, Table 1.

Turning to `FC(F)(F)Oc1ccc2[nH]c3c(-c4cccc5ccccc45)nccc3c2c1` [Compound 52, 1-(Naphthalen-1-yl)-6-(trifluoromethoxy)-9H-pyrido[3,4-b]indole], the IC50 (as a rule, the concentration at which inhibition is half-maximal) was 35.5 µM in assay [1] (Homo sapiens, Table 2); 8.63 µM in assay [2] (setting [7]); greater than 50 µM in assay [3] (Homo sapiens, Table 2); 7.61 µM in assay [4] (Homo sapiens, MCF7, Table 2); 4.99 µM in assay [5] (Homo sapiens).
Regarding `Cc1ccc2[nH]c3c(-c4cccc5ccccc45)nccc3c2c1` [Compound 51, 6-Methyl-1-(naphthalen-1-yl)-9H-pyrido[3,4-b]indole], the IC50 was greater than 50 µM in assay [1] (Homo sapiens, Table 2); 13.1 µM in assay [2] (setting [7]); greater than 50 µM in assay [3] (Homo sapiens, Table 2); 6.78 µM in assay [4] (Homo sapiens, MCF7, Table 2); 6.54 µM in assay [5] (Homo sapiens).
For `CNS(=O)(=O)Cc1ccc2[nH]c3c(-c4cccc5ccccc45)nccc3c2c1` [Compound 42, N-methyl-1-(1-(naphthalen-1-yl)-9H-pyrido[3,4-b]indol-6-yl)methanesulfonamide], the IC50 came to 3.83 µM in assay [1] (Homo sapiens, Table 2); 0.58 µM in assay [2] (setting [7]); 6.11 µM in assay [3] (Homo sapiens, Table 2); 2.04 µM in assay [4] (Homo sapiens, MCF7, Table 2); 1.11 µM in assay [5] (Homo sapiens).
Regarding `Oc1ccc2[nH]c3c(-c4cccc5ccccc45)nccc3c2c1` [Compound 40, 1-(naphthalen-1-yl)-9H-pyrido[3,4-b]indol-6-ol], the IC50 in assay [4] (Homo sapiens, MCF7, Table 2) was 34 µM; in assay [5] (Homo sapiens), 10.3 µM.
For “1-(1,2-Dihydroacenaphth alen-5-yl)-6-methoxy-9H-pyrido[3,4-b]indole [Compound 47]”, the IC50 in assay [1] (Table 2) is 4.79 µM; in assay [2] (Table 2) it was 2.95 µM; in assay [3] (Table 2), greater than 50 µM; in assay [4] (Table 2), 6.42 µM; in assay [5], 4.47 µM.
Turning to `Brc1ccc2[nH]c3c(-c4cccc5ccccc45)nccc3c2c1` [Compound 54, 6-Bromo-1-(naphthalen-1-yl)-9H-pyrido[3,4-b]indole], the IC50 came out at 10.9 µM in assay [1] (Homo sapiens, Table 2); 26.2 µM in assay [2] (setting [7]); 30.3 µM in assay [3] (Homo sapiens, Table 2); 11.4 µM in assay [4] (Homo sapiens, MCF7, Table 2); 5.09 µM in assay [5] (Homo sapiens).
For `COc1ccc2c(c1)c1ccnc(-c3cccc4ccccc34)c1n2C` [Compound 57, 6-Methoxy-9-methyl-1-(naphthalen-1-yl)-9H-pyrido[3,4-b]indole], in that order: 44.2 µM, 34 µM, 41.3 µM, 52 µM and 17.8 µM.
For `N#Cc1ccc2[nH]c3c(-c4cccc5ccccc45)nccc3c2c1` [Compound 53, 1-(Naphthalen-1-yl)-9H-pyrido[3,4-b]indole-6-carbonitrile], in that order: 50 µM, 40.4 µM, greater than 50 µM, greater than 50 µM and 30.2 µM.
For `COc1ccc2c(c1)[nH]c1c(-c3c4ccccc4cc4ccccc34)nccc12` [Compound 28, 1-Anthracen-9-yl-7-methoxy-9H-β-carboline], the IC50 in assay [6] stood at 1.7 µM; in assay [1] (Homo sapiens, Table 1) it was 5.47 µM; in assay [2] (setting [8]), 3.59 µM; in assay [3] (Homo sapiens, Table 1) it was 14.9 µM.
With `COc1ccc2c(c1)[nH]c1c(-c3cncc4ccccc34)nccc12` [Compound 16, 1-Isoquinolin-4-yl-7-methoxy-9H-β-carboline], the IC50 in assay [6] is 33.5 µM; in assay [1] (Homo sapiens, Table 1), 44.9 µM; in assay [2] (setting [8]) it was 36.7 µM; in assay [3] (Homo sapiens, Table 1) it was greater than 50 µM.
For `COc1ccc2[nH]c3c(-c4ccccc4)nccc3c2c1` [Compound 31, 6-Methoxy-1-phenyl-9H-β-carboline], the IC50 in assay [6] is 33.5 µM; in assay [1] (Homo sapiens, Table 1), 44.8 µM; in assay [2] (setting [8]), 37.1 µM; in assay [3] (Homo sapiens, Table 1) it was greater than 50 µM.
With `COc1ccc2c(c1)[nH]c1c(-c3cccc4ccccc34)nccc12` [Compound 20, 7-Methoxy-1-naphthalen-1-yl-9H-β-carboline], the IC50 in assay [6] is 3.6 µM; in assay [1] (Homo sapiens, Table 1) it was 25.5 µM; in assay [2] (setting [8]) it was 6.61 µM; in assay [3] (Homo sapiens, Table 1), greater than 50 µM.
